Assay results as given in paper PMC11460631, “Inhibition of transient receptor potential vanilloid 3 channels by antimalarial hydroxychloroquine alleviates TRPV3-dependent dermatitis” (The Journal of Biological Chemistry, 2024).

Experiments:
[1] = target: T1, TRPV3 F633 alanine mutation (Homo sapiens, UniProt Q8NET8, F633A); test: Whole-cell recording of TRPV3 F633 alanine mutant; assay type: cell-based; conditions: 1 mM 2-APB, ± 80 mV
T1 construct: YFP or GFP; expressed in transfected cells; host or cells: HEK293T
T1 sequence (Q8NET8 1-790 F633A): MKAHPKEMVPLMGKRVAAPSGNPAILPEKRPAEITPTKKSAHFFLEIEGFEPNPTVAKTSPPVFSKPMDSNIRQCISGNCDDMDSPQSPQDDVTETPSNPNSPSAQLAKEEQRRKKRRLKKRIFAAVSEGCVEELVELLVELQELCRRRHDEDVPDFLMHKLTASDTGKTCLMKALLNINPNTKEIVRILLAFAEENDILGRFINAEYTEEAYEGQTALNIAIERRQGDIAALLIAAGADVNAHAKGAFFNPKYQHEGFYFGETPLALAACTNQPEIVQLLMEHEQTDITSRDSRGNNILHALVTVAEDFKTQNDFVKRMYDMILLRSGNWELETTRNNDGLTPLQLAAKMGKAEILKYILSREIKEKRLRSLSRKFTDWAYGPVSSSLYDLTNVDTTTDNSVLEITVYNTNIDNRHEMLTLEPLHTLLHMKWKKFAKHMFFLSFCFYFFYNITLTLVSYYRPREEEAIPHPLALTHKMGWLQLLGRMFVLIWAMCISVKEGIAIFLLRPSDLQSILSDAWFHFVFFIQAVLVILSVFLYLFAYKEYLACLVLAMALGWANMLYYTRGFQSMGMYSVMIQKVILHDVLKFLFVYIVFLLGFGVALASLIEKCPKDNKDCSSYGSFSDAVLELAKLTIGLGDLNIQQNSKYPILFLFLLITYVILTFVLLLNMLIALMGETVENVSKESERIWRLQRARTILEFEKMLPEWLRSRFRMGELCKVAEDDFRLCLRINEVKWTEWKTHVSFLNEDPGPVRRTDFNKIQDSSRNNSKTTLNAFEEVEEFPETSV
Text: As we mentioned above, HCQ may act as a pore blocker of TRPV3. To probe the binding configuration of HCQ to TRPV3, we carried out molecular docking using Rosetta suite (https://rosettacommons.org) ([21]) and validated the docking models with point mutations in TRPV3 (Fig. 4A). […] Furthermore, when we introduced L670A to L591A mutant, we also observed a left shift on the concentration–response curve on this double mutant as compared to L591A mutant (Fig. 4H).
Figure 4 Residues of the pore domain are critical for HCQ inhibition on TRPV3.A, left panel, docking model of HCQ to the pore domain of TRPV3 structure (6uw4). Right panels, top view and side view of the HCQ-binding pocket. B-J, representative whole-cell recording of TRPV3 and mutants in response to 1 mM 2-APB, the mixture of 1 mM 2-APB and concentration gradients of HCQ with the holding potential of ± 80 mV. K, concentration–response curves of HCQ in WT TRPV3 and mutants (n = 3–5 cells). L, quantification of the inhibitory ratio of HCQ (100 μM) on WT, L591A, and N671Q. […]
All data from whole-cell recordings were analyzed in Igor Pro (WaveMetrics). IC50 values were determined by fitting the Hill equation to concentration-response relationships. […]

[2] = target: T2, hTRPA1 (Homo sapiens, UniProt O75762); test: Whole-cell current recordings, hTRPA1; assay type: cell-based; conditions: 100 μM HCQ; current activated by 500 μM allyl isothiocyanate
T2 construct: YFP or GFP; expressed in transfected cells; host or cells: HEK293T
T2 sequence (O75762 whole entry): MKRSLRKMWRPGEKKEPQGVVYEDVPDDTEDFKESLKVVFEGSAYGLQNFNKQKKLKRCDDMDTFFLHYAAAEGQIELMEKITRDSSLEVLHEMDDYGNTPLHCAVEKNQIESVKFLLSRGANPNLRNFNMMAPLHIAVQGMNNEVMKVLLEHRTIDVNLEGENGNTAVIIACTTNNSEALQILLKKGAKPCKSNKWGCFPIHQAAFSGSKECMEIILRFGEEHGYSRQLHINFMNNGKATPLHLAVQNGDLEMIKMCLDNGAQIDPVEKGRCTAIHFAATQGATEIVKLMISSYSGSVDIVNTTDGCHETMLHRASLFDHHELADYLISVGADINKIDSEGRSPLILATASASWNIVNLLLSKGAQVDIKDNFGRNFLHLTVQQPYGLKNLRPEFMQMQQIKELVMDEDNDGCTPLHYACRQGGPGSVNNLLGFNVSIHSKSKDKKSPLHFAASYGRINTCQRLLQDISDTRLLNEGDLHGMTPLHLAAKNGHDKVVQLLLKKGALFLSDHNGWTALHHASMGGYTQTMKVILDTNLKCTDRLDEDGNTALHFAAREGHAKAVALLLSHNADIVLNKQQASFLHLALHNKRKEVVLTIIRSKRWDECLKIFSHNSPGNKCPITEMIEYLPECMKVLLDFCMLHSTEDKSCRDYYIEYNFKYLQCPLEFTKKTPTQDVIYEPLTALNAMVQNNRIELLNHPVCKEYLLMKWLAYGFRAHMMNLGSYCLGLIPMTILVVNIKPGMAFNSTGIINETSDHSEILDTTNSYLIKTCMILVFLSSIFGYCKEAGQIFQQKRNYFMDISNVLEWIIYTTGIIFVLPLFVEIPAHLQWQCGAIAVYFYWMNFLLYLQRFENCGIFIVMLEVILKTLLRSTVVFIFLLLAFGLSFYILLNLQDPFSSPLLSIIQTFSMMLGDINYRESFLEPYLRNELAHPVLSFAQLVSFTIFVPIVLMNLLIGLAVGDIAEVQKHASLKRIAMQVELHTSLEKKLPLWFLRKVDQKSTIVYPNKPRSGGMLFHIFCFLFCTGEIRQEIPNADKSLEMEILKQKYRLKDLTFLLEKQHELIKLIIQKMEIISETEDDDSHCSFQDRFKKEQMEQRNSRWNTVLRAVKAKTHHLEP
Experimental: (§1) To elucidate the specificity of HCQ inhibition on TRPV3, we conducted whole-cell current recordings on other known pruritus-related TRP channels, such as hTRPA1, mTRPV1, mTRPV4, and mTRPM8 (Fig. 3, A and F). […] Because of the relatively larger inhibition of HCQ on mTRPM8 current, we tested the concentration dependence of HCQ on mTRPM8 channels.
(§2) HEK293T cells are cultured using Dulbecco's modified Eagle's medium containing 10% fetal bovine serum and 1% penicillin-streptomycin in a cell incubator with 5% CO2 at 37 °C. Plasmids of murine TRPV1, TRPV4, TRPM8, and human TRPV3, TRPA1 are labeled with YFP or GFP as indicators for subsequent electrophysiological recordings. Complementary DNA constructs of ion channels were transiently transfected with Lipofectamine 3000 (Invitrogen). And 12 to 18 h after transient transfection, electrophysiological recordings were performed.
(§3) Patch-clamp recordings were carried out with a HEKA EPC10 amplifier controlled by PatchMaster software (HEKA; https://www.heka.com/products/products_main.html#soft_pm) ([36]). Patch pipettes were prepared from borosilicate glass and fire-polished to the resistance of 3 to 8 MΩ by P-97 puller for whole-cell recordings. For single-channel recordings, patch pipettes were fire-polished to a higher resistance of 6 to 10 MΩ. […]

[3] = target: T3, mTRPV1 (Mus musculus, UniProt Q704Y3); test: Whole-cell current recordings, mTRPV1; assay type: cell-based, murine; conditions: 100 μM HCQ; current activated by 5 μM capsaicin
T3 construct: YFP or GFP; expressed in transfected cells; host or cells: HEK293T
T3 sequence (Q704Y3 whole entry): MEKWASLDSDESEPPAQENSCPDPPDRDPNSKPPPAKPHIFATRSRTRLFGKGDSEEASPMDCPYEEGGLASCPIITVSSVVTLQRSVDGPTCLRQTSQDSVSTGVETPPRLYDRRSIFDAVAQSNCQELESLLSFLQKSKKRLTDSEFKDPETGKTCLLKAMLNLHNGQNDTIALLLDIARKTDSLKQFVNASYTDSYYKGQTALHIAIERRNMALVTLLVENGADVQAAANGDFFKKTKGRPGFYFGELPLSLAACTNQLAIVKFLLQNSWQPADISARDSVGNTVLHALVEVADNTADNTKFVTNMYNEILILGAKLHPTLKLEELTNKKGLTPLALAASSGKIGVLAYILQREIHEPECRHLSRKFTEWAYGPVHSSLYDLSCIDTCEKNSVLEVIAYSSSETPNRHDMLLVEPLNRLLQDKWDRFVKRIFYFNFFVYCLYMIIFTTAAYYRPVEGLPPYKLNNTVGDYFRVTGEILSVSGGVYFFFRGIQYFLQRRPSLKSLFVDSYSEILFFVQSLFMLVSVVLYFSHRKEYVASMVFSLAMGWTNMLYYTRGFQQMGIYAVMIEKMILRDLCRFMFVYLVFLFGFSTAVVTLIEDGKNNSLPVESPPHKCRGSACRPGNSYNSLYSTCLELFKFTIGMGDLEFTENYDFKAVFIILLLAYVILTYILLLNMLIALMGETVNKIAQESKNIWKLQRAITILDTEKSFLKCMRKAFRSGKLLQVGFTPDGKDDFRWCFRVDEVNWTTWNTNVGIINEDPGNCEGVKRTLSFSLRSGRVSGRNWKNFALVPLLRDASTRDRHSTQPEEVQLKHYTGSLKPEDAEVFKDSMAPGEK
Experimental: as §1, §2, §3

IC50 [1]: 140 ± 10 nM | reduction of hTRPA1 current [2]: 11.37% ± 4.10% | reduction of mTRPV1 current [3]: 12.37% ± 5.32%
SMILES: CCN(CCO)CCCC(C)Nc1ccnc2cc(Cl)ccc12 (stereo not drawn) [HCQ, hydroxychloroquine]
